Assays:
ULK1 kinase = target: T1, ULK1 kinase (Homo sapiens, UniProt O75385, E37A/K38A); test: Biochemical assay for ULK1.3 (coupled pyruvate kinase/lactate dehydrogenase assay, peptide substrate); settings: 0.1 nM ULK1 (residues 1-283), 1 mM ATP
T1 construct: purchased Beryllium
T1 sequence (O75385 1-283 E37A/K38A): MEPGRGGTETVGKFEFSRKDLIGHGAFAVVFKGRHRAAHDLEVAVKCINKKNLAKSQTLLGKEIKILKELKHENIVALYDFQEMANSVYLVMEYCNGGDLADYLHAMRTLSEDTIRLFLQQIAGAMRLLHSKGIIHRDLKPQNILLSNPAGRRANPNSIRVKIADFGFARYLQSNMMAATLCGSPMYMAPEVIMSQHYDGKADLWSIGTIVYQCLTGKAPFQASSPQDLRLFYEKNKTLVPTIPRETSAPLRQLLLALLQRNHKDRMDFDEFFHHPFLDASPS
Procedure: Biochemical Assay for ULK1.3 (SEQ. ID NO: 2)
Inhibition of ULK1 was measured by adding serial diluted test compound (final assay concentration of 1% DMSO). A decrease in absorption at 340 nm was monitored continuously for 6 hours at 30° C. on a multi-mode microplate reader (BioTek). The reaction rate was calculated using the 2-3 h time frame. The reaction rate at each concentration of compound was converted to percent inhibition using controls (i.e. reaction with no test compound and reaction with a known inhibitor) and IC50 values were calculated using software routines in Prism (GraphPad software).

ULK kinase [1] = test: pATG13 levels of mutant KRas A549 cells after treatment with ULK inhibitors in combination with trametinib (ELISA); format: cell-based, human; settings: A549 (KRAS mutant) lung cancer cells, 250 nM trametinib, overnight, pS318-ATG13
Procedure: Cellular Inhibition of ULK Kinase Substrate ATG13 Protein pATG13 Levels of Mutant KRas A549 Cells after Treatment with ULK Inhibitors in Combination with Trametinib
(§1) A549 (KRAS mutant) human lung cancer cells (6,000 cells/well) were added to a 384-well tissue-culture treated plate in 50 μL of pre-warmed DMEM medium supplemented with 10% characterized fetal bovine serum (Invitrogen, Carlsbad, Calif.), 100 units/mL penicillin G, and 100 μg/mL streptomycin and allowed to grow overnight at 37° C., 5% CO2, and 95% humidity. The following day, 10 μL of media containing trametinib or DMSO as a control was added to wells. […] A dose response of a test compound (0.6 μL per well) was added. DMSO (0.6 μL) was added to control wells. The plate was briefly shaken to mix wells and then incubated at 37° C. overnight. The next day, the media was aspirated and cells were washed with Dulbecco's Phosphate Buffered Saline (Gibco). Cells were lysed using MPER lysis buffer (Pierce, Rockford, Ill.) containing Halt Phosphatase and Protease Inhibitors (Pierce, Rockford, Ill.) and Phosphatase inhibitor cocktail 2 (Sigma, St. Louis, Mo.) at 4° C. for 10 minutes with shaking.
(§2) Plate wells were washed with ELISA wash buffer. Cell lysate was added to wells and incubated at room temperature for 2 hours. Plate wells were washed with ELISA wash buffer. […] Plate wells were washed with ELISA wash buffer. […] Plate wells were washed with ELISA wash buffer. […] The reaction was stopped with 2N Sulfuric Acid. The plate was analyzed at on a plate reader measuring absorbance at 450 nm and 540 nm (background). Signal was calculated by first subtracting the background absorbance at 540 nm from the absorbance at 450 nm for each well. Next, the background corrected absorbance at 450 nm from blank wells was subtracted from test wells. Data was compared to control wells to determine % ATG13 phosphorylation. GraphPad Prism was used to calculate IC50 values.

ULK kinase [2] = test: pATG13 levels of mutant KRas MiaPaCa-2 cells after treatment with ULK inhibitors in combination with trametinib (ELISA); format: cell-based, human; settings: MiaPaCa-2 pancreatic cancer cells, 250 nM trametinib, overnight, pS318-ATG13
Procedure: as §1, with “MiaPaCa-2” for “A549 (KRAS mutant)”, “pancreatic” for “lung”, “(10000” for “(6,000”, “G, 100 µg/mL streptomycin,” for “G,”, “2.5% Horse Serum” for “100 μg/mL streptomycin”
as §2

Row | Compound | IC50 (ULK1 kinase) [nM] | IC50 (ULK kinase [1]) [nM] | IC50 (ULK kinase [2]) [nM]
1 | CCc1cc(N2CCCN(C)CC2)ccc1Nc1ncc(C(F)(F)F)c(NCCCN2CCCCC2=O)n1 [Example 31] | 1 to 25 | 300 to 600 | 100 to 300
2 | CN1C2CCC1CN(c1ccc(Nc3ncc(C(F)(F)F)c(NCCCN4CCCCC4=O)n3)c(C3CC3)c1)C2 [Example 130] | 25 to 100 | 300 to 600 | 300 to 600
3 | CCc1cc(C2CCN(C)CC2)ccc1Nc1ncc(C(F)(F)F)c(NCCCN2CCOCCC2=O)n1 [Example 146] | 25 to 100 | – | –
4 | CCN1CCN(c2ccc(Nc3ncc(C(F)(F)F)c(NCCCN4CCCCC4=O)n3)c(C(C)C)c2)CC1 [Example 28] | 1 to 25 | 100 to 300 | 100 to 300
5 | CCc1cc(N2CC[C@@H](N(C)C)C2)ccc1Nc1ncc(C(F)(F)F)c(NCCCN2CCOCCC2=O)n1 [Example 144] | 1 to 25 | – | –
6 | CC(=O)N1CCN(c2ccc(Nc3ncc(C(F)(F)F)c(NCCCN4CCCCC4=O)n3)c(C3CC3)c2)CC1 [Example 36, 1-(3-((2-((4-(4-acetylpiperazin-1-yl)-2-cyclopropylphenyl)amino)-5-(trifluoromethyl)pyrimidin-4-yl)amino)propyl)piperidin-2-one] | 25 to 100 | > 600 | > 600
7 | CN1CCN(c2ccc(Nc3cc(NCCCN4CCCOC4=O)c(C(F)(F)F)cn3)cc2)CC1 [Example 102] | 1 to 25 | 100 to 300 | 100 to 300
8 | CC(C)c1cc(N2CCN(C)CC2)ccc1Nc1ncc(Br)c(NCCCN2CCCOCC2=O)n1 [Example 77] | 25 to 100 | – | –
9 | CCc1cc(N2CC3CCC(C2)N3)ccc1Nc1ncc(C(F)(F)F)c(NCCCN2CCOCCC2=O)n1 [Example 150] | 1 to 25 | 100 to 300 | 10 to 100
10 | CN(C)CC1CN(c2ccc(Nc3ncc(C(F)(F)F)c(NCCCN4CCCCC4=O)n3)c(C3CC3)c2)C1 [Example 151] | 1 to 25 | – | –
11 | CCc1cc(C2CCN(C)C2)ccc1Nc1ncc(C(F)(F)F)c(NCCCN2CCOCCC2=O)n1 (stereo not shown) [Example 143] | 1 to 25 | – | –
12 | CCc1cc(N2CCN(C)CC2)ncc1Nc1ncc(C(F)(F)F)c(NCCCN2CCCOCC2=O)n1 [Example 53] | 25 to 100 | – | –
13 | O=C1OCCCN1CCCNc1nc(Nc2ccc(N3CCN4CCC[C@@H]4C3)cc2C2CC2)ncc1C(F)(F)F [Example 42] | 1 to 25 | 10 to 100 | 10 to 100
14 | CN1C2CCC1CN(c1ccc(Nc3ncc(C(F)(F)F)c(NCCCN4CCOCCC4=O)n3)c(C3CC3)c1)C2 [Example 133] | 100 to 500 | – | –
15 | CCc1cc(N2CCN(C)CC2)ccc1Nc1ncc(C(F)(F)F)c(NCCCN2CC(C)(C)C2=O)n1 [Example 141] | 25 to 100 | – | –
16 | CN1CCN(c2ccc(Nc3ncc(C(F)(F)F)c(NCCCN4CCCOC4=O)n3)c(C(C)(C)O)c2)CC1 [Example 135] | 100 to 500 | – | –
17 | CCc1cc(N2CC3CCC(C2)N3C)ccc1Nc1ncc(C(F)(F)F)c(NCCCN2CCC(C)(C)OC2=O)n1 [Example 140] | 100 to 500 | – | –
18 | CCN1CCN(c2ccc(Nc3ncc(Cl)c(NCCCN4CCCCC4=O)n3)c(C(C)C)c2)CC1 [Example 29] | 100 to 500 | – | –
19 | CCc1cc(N2CCN(C)CC2)ncc1Nc1ncc(C(F)(F)F)c(NCCCN2CCCOC2=O)n1 [Example 128] | 1 to 25 | – | –
20 | CCc1cc(N2CCN(C)CC2)ccc1Nc1ncc(Cl)c(NCCCN2CCCOC2=O)n1 [Example 43] | 25 to 100 | – | –
21 | CCc1cc(N2CCN3CCC[C@H]3C2)ccc1Nc1ncc(C(F)(F)F)c(NCCCN2CCCOC2=O)n1 [Example 121] | 1 to 25 | – | –
22 | CCc1cc(N2CC3CCC(C2)N3C)ccc1Nc1ncc(C(F)(F)F)c(NCCCN2CCCOCC2=O)n1 [Example 138] | 100 to 500 | – | –
23 | CCc1cc(N2CC[C@H](N(C)C)C2)ccc1Nc1ncc(C(F)(F)F)c(NCCCN2CCOCCC2=O)n1 [Example 145] | 1 to 25 | – | –
24 | CCc1cc(N2CCCN(C)CC2)ccc1Nc1ncc(C(F)(F)F)c(NCCCN2CCCOCC2=O)n1 [Example 63] | 25 to 100 | – | –
25 | CCc1cc(N2CC3CCC(C2)N3C)ccc1Nc1ncc(C(F)(F)F)c(NCCCN2CC(C)(C)C2=O)n1 [Example 139] | > 500 | – | –
26 | CCc1cc(N2CC(CN(C)C)C2)ccc1Nc1ncc(C(F)(F)F)c(NCCCN2CCOCCC2=O)n1 [Example 152] | 1 to 25 | – | –
27 | CCc1cc(N2CCN(C)CC2)ccc1Nc1ncc(C(F)(F)F)c(NCCCN2CCOCC(C)(C)C2=O)n1 [Example 142] | 1 to 25 | – | –
28 | CC(C)c1cc(N2CCN(C)CC2)ccc1Nc1ncc(Br)c(NCCCN2CCCCC2=O)n1 [Example 15] | 25 to 100 | – | –

Further lines, results first:

Row | IC50 (ULK1 kinase) [nM] | IC50 (ULK kinase [1]) [nM] | IC50 (ULK kinase [2]) [nM] | Compound
29 | > 500 | – | – | CN1CCN(c2ccc(Nc3ncc(C(F)(F)F)c(NCCCN4CCOCCC4=O)n3)c(C(C)(C)O)c2)CC1 [Example 134]
30 | 1 to 25 | – | – | CN1CCCN(c2ccc(Nc3ncc(C(F)(F)F)c(NCCCN4CCCCC4=O)n3)c(C3CC3)c2)CC1 [Example 24]
31 | 25 to 100 | – | – | CN1CCN(c2ccc(Nc3cc(NCCCN4CCCCC4=O)c(C(F)(F)F)cn3)c(C3CC3)c2)CC1 [Example 94]
32 | 25 to 100 | > 600 | 100 to 300 | CCc1cc(N2CCN(C)CC2)ccc1Nc1ncc(Cl)c(NCCCN2CCOCCC2=O)n1 [Example 80]
33 | 1 to 25 | – | – | CN(C)C1CN(c2ccc(Nc3ncc(C(F)(F)F)c(NCCCN4CCOCCC4=O)n3)c(C3CC3)c2)C1 [Example 136]
34 | 1 to 25 | 10 to 100 | 10 to 100 | CN1CCN(c2ccc(Nc3cc(NCCCN4CCCCC4=O)c(C(F)(F)F)cn3)cc2)CC1 [Example 103]
35 | 25 to 100 | 300 to 600 | 100 to 300 | CC(C)c1cc(N2CCN(C)CC2)ccc1Nc1ncc(Cl)c(NCCCN2CCOCCC2=O)n1 [Example 88]
36 | 1 to 25 | 100 to 300 | 10 to 100 | CN1CCN(c2ccc(Nc3ncc(Br)c(NCCCN4CCCCC4=O)n3)c(C3CC3)c2)CC1 [Example 26]
37 | 1 to 25 | 10 to 100 | 10 to 100 | CN1CCN(c2ccc(Nc3ncc(Br)c(NCCCN4CCCOC4=O)n3)c(C3CC3)c2)CC1 [Example 40]
38 | 1 to 25 | 100 to 300 | 10 to 100 | CN1CCN(c2ccc(Nc3cc(NCCCN4CCOCCC4=O)c(C(F)(F)F)cn3)cc2)CC1 [Example 110]
39 | 100 to 500 | – | – | O=C1CCOCCN1CCCNc1nc(Nc2ccc(N3CCNCC3)cc2C2CC2)ncc1Cl [Example 89]
40 | 100 to 500 | – | – | CN1CCN(c2ccc(Nc3cc(NCCCN4CCOCCC4=O)c(Cl)cn3)c(C3CC3)c2)CC1 [Example 104]
41 | 100 to 500 | – | – | CCc1cc(N2CCN(C)CC2)ccc1Nc1ncc(C2CC2)c(NCCCN2CCCOC2=O)n1 [Example 45]
42 | > 500 | – | – | CCc1cc(N2CCN(C)CC2)ccc1Nc1ncc(C2CC2)c(NCCCN2CCOCCC2=O)n1 [Example 83]
43 | 100 to 500 | – | – | CN1CCN(c2ccc(Nc3cc(NCCCN4CCCCC4=O)c(C(F)(F)F)cn3)nc2)CC1 [Example 97, 1-(3-((2-((5-(4-methylpiperazin-1-yl)pyridin-2-yl)amino)-5-(trifluoromethyl)pyridin-4-yl)amino)propyl)piperidin-2-one]
44 | 1 to 25 | – | – | CN1CCN(c2ccc(Nc3ncc(C(F)(F)F)c(NCCCN4CCCCCC4=O)n3)c(C3CC3)c2)CC1 [Example 38]
